Reference: article PMC9920246, “Entinostat-Bortezomib Hybrids against Multiple Myeloma” (Molecules, 2023)
Like-named read-outs stand apart in the source and are kept apart here.

How the values were obtained:
RPMI 8226 cells = assay: Antiproliferative assay (XTT, 72 h); format: cell-based, human; conditions: Homo sapiens; RPMI 8226 cells, 72 h, XTT, mean ± SD, n = 3
RPMI 8226/BTZ100 cells = assay: cells; format: cell-based, human; conditions: for IC50: Homo sapiens, RPMI-8226, 72 h, read-out: IC50 Value Antiproliferative Activity RPMI 8226/BTZ100
[1] = tested on: 3D co-culture spheroids containing RPMI 8226 cells and mesenchymal stem cells (MSC) in a 5:1 ratio; assay: Antiproliferative assay in 3D co-culture spheroids (CellTiter-Glo 3D, 48 h); format: cell-based, human; conditions: Homo sapiens, RPMI 8226 + MSC 5:1 spheroids, mean ± SD, n = 3
Method: The multiple myeloma human plasma cells RPMI 8226 were purchased from American Type Culture Collection (ATCC, Manassas, VA, USA) and cultured in RPMI 1640 medium (Gibco, Paisley, UK) supplemented with 50 µg/mL streptomycin sulfate, 50 U/mL penicillin G sodium salt (Gibco, Grand Island, NY, USA) and 10% fetal bovine serum (FBS) (Biowest, Nuaillé, France). […] Human MSC from the bone marrow were purchased from PromoCell and were cultured in Mesenchymal Stem Cell Growth Medium 2 (PromoCell, Heidelberg, Germany) supplemented with 100 μg/mL streptomycin sulfate and 100 U/mL penicillin G sodium salt.
RPMI 8226 cells and MSC were mixed in a 5:1 ratio. The cell mixture was centrifuged, and medium containing 20% collagen I (Gibco) adjusted to pH 7 was added to the cell pellet. Five μL drops were plated in each well of an ice-cold 96-well ultra-low attachment U-bottom plate (Corning, Kennebunk, MA, USA) and the plate was incubated for 30 min at 37 °C and 5% CO2 atmosphere. After the incubation, 200 μL of RPMI 1640 medium (Gibco) supplemented with 50 µg/mL streptomycin sulfate, 50 U/mL penicillin G sodium salt (Gibco) and 10% FBS (Biowest) was added to each well. The 3D spheroids were formed after 48 h.
RPMI 8226 and RPMI 8226/BTZ100 cells were seeded in 96-well plates (Costar, Kennebunk, MA, USA) at a density of 15,000 cells per well and directly treated for 72 h with the various compounds using increasing concentrations (0.31–2000 nM). […] Following the treatment, 100 μL of medium was carefully removed from each well and collagenase (1.5 μL of a 100 mg/mL solution, Sigma) was added. The plate was shaken at 37 °C for 10 min at 350 rpm. Then, 100 μL of CellTiter-Glo 3D reagent (Promega, Fitchburg, WI, USA) was added to each well. The plate was incubated for 5 min at 37 °C under agitation at 250 rpm, followed by 25 min at room temperature without agitation. Finally, the luminescence was measured using a Cytation 3 plate reader (BioTek). The percentage of cell proliferation and calculation of the IC50 value were determined as previously described. Each compound was tested in triplicate in three independent experiments.

26S proteasome = molecular target: T1, 26S proteasome (Homo sapiens, UniProt P28074); assay: Proteasome inhibitory activity (Suc-LLVY-amc) in RPMI 8226 cell lysate; format: biochemical; conditions: 26S proteasome in RPMI 8226 cell lysate, 30 min preincubation, Suc-LLVY-amc 100 µM, mean ± SD, n = 3; read-out: IC50 Value PI Activity
T1 sequence (P28074 60-263): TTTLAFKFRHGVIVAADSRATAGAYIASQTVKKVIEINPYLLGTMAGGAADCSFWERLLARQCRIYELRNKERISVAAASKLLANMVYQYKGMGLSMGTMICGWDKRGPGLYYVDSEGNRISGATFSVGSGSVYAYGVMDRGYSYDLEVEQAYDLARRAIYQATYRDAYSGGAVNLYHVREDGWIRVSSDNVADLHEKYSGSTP
Method: RPMI 8226 cells (1 × 10^6 cells/mL) were collected, centrifuged, and washed twice with cold PBS (Gibco). The supernatant was discarded, and 200 μL of ice-cold lysis buffer (NP40 cell lysis buffer (Invitrogen, Eugene, OR, USA), supplemented with 1 mM PMSF (Sigma) and protease inhibitor cocktail (Sigma), was added to the pellet. Cells were kept on ice for 30 min and vortexed every 10 min. Samples were then centrifuged at 4 °C for 10 min at 16,000× g. Supernatant containing the proteins was collected. Protein quantification was performed using the Coomassie (Bradford) Protein Assay Kit (ThermoFisher, Waltham, MA, USA) following the manufacturer instructions. In each well of a 96-well black plate (ThermoFisher), 10 µg of proteins were mixed with assay buffer (50 mM Tris-HCl, pH 7.5, 40 mM KCl, 5 mM MgCl2, 0.5 mM ATP, 1 mM DTT, 0.5 mg/mL BSA) in 180 µL total volume. […] The plate was then incubated for 30 min at 37 °C. After incubation, the reaction was started by adding the fluorometric peptide substrate Suc-LLVY-amc (Bio-Techne, Minneapolis, MN, USA) at a final concentration of 100 µM, except for the blank wells. Following 1 h incubation at 37 °C in the dark, the fluorescence signal was red (excitation: 380 nm, emission: 440–460 nm) using a Cytation 3 plate reader (BioTek). The percentage of 26S proteasome activity was measured by comparing the fluorescence of the sample treated with the vehicle control wells and multiplied by 100. The IC50 value was calculated as mentioned above, and each compound was tested in triplicate in three independent experiments.

HDAC = HDAC inhibitory activity in RPMI 8226 cells (MAL substrate, UHPLC-MS); format: cell-based, human; conditions: 10 µM, 8 h
Method: RPMI 8226 cells were seeded in 96-well plates (Costar) at a density of 15,000 cells per well in 25 µL of medium containing the HDAC substrate N-(4-methyl-7-aminocoumarinyl)-Nα-(t-butoxycarbonyl)-Nω-acetyllysineamide (21 µM, MAL, Sigma). The cells were directly treated with the compounds at 10 µM or with Ent (0.4–250 µM) for 8 h to obtain a final volume of 50 µL. […] Following the incubation, the reaction was stopped by adding 10 µL of 6X RIPA buffer, supplemented with protease inhibitor (Sigma). Then, 160 µL of cold acetonitrile were added and the plate was placed for 10 min at −80 °C. The plate was centrifuged at 5000× g for 10 min at 4 °C, and the supernatant was transferred into a UHPLC-adapted 96-well plate (Nunc 96-well plate conical bottom, ThermoFisher) and sealed. The substrate (MAL) and its deacetylated product (dMAL) were measured using a UHPLC-MS method as previously described. The percentage of HDAC inhibition is given by 100 − [(tested sample × 100/control sample)], and the dose-response curve of Ent was established.

[2] = Drug combination of Ent and BTZ, antiproliferative effect (Combenefit, CompuSyn); format: cell-based; conditions: read-out: IC50 in drug combination experiment
Method: Combinations were evaluated using Combenefit data analysis.
Statistical analysis was performed in GraphPad Prism 9 (GraphPad) using one-way ANOVA for the proteasome inhibition assay. Combenefit (Cancer Research UK Cambridge Institute, Cambridge, UK) and CompuSyn software were used for drug combination analyses. The CI was calculated through the Chou-Talalay method using Compusyn. Data are expressed as mean ± standard deviation (SD).

Row | SMILES | IC50 (RPMI 8226 cells) [nM] | IC50 (RPMI 8226/BTZ100 cells) [nM] | IC50 [1] [nM] | IC50 (26S proteasome) [nM] | Inhibition of HDAC activity (HDAC) [%] | Increased resistance (RPMI 8226/BTZ100 vs. RPMI 8226) (RPMI 8226/BTZ100 cells; ratio of IC50 in resistant vs. parental cells) [fold] | Increased resistance (RPMI 8226/BTZ100 vs. RPMI 8226) (RPMI 8226/BTZ100 cells) [fold] | IC50 [2] [nM]
1 | CC(C)C[C@H](NC(=O)[C@@H](Cc1ccccc1)NC(=O)Cc1ccc(C(=O)Nc2ccc(F)cc2N)cc1)B1OC2CC3CC(C3(C)C)[C@@]2(C)O1 (stereo partly drawn) [Compound 7, N-(2-amino-4-fluorophenyl)-4-(2-(((2R)-1-(((1R)-3-methyl-1-((3aR)-3a,5,5-trimethyl-hexahydro-4,6-methanobenzo[d][1,3,2]dioxaborol-2-yl)butyl)amino)-1-oxo-3-phenylpropan-2-yl)amino)-2-oxoethyl)benzamide] | 31.4 ± 1.7 | 831 ± 139 | 89.3 ± 13.6 | 7.2 ± 1.7 | 37 | – | – | –
2 | CC(C)C[C@H](NC(=O)[C@@H](Cc1ccccc1)NC(=O)c1cnc(C(=O)Nc2ccccc2N)cn1)B1OC2CC3CC(C3(C)C)[C@]2(C)O1 (stereo partly drawn) [Compound 3, N^2-(2-aminophenyl)-N^5-((2R)-1-(((1R)-3-methyl-1-((3aS)-3a,5,5-trimethylhexahydro-4,6-methanobenzo[d][1,3,2]dioxaborol-2-yl)butyl)amino)-1-oxo-3-phenylpropan-2-yl)pyrazine-2,5-dicarboxamide] | 9.5 ± 1.4 | 158 ± 15.8 | 13.1 ± 6.9 | 27.2 ± 6.2 | 33 | 16.6 | – | –
3 | CC(C)C[C@H](NC(=O)[C@H](Cc1ccccc1)NC(=O)c1cnccn1)B(O)O [BTZ, bortezomib] | 2.1 ± 0.4 | 245 ± 11.1 | 6.4 ± 1.6 | – | – | – | 116.8 | 3.3
